Data as given in patent publication US20090082455A1, “THERAPEUTIC AGENT FOR OPHTHALMIC DISEASE” (ONO PHARMACEUTICAL CO. LTED, priority 2005, published 2009).
“Also recorded” adds a separate entry of the source. Where a name gives a salt, the structure may show the parent alone. Read-outs that look alike come from different tables or passages of the source.

Assays:
Assay type in all cases: in vivo
[1] = test system: GFAP-positive cells; experiment: Rat retinal ischemia model: GFAP-positive cell number and area (GFAP staining); settings: for Effect on changes in number of GFAP-positive cells / Effect on increases in GFAP positive areas: result in words; for inhibition at 10 mg/kg: Rattus norvegicus, iv; for Number of GFAP positive cells, A2 (mean): point A2 (optic nerve papilla); for Area of GFAP positive cells, A2 (mean): point A2; for Area of GFAP positive cells, A3 (mean) / Number of GFAP positive cells, A3 (mean): point A3; for Area of GFAP positive cells, A4 (mean): point A4 (optic nerve)
Method: (§1) A 27 G injection needle (4) was attached to an end of the tube. A part about 20 cm below the bottom end of the perfusion line was attached to a supporting bar and the part was lightly fixed by a stand.
(§2) A rat (Crj:CD(SD) IGS, from CHARLES RIVER LABORATORIES JAPAN, Inc.) was anesthetized with pentobarbital sodium (40 mg/kg, i.p.) and the pupil of the eye to be operated were preliminarily dilated by using a mydriasis agent (MYDRIN P; manufactured by SANTEN PHARMACEUTICAL Co., Ltd.).
(§3) Before the surgical operation, the bottle (1) was held up so that the water surface in the perfusion bottle was located on 163.5 cm above the rat eyes in the state of closing the perfusion line (loading an intraocular pressure of […]). After opening the top end, the perfusion line was connected to a differential pressure transducer and the height was adjusted to give a predetermined pressure, followed by closing the line. With confirming the mydriasis under a stereoscopic microscope, the stopper of the perfusion line was loosened and the solution was dropped little by little from the needle point. As the cornea was tightly sandwiched between tweezers and an injection needle (4), the injection needle (4) was punctured into the anterior chamber (5) from the nasal side. Next, the perfusion line was opened to load pressure in the anterior chamber (5). After loading the ischemia for 60 minutes, the injection needle (4) was taken off and the animals were awaken out of the anesthesia with keeping the body temperature at 37° C. In the sham-ischemia group, an injection needle was punctured into the anterior chamber from the nasal side in the state of closing the perfusion line, followed by taking off after 60 minutes.
(§4) (2R)-2-propyloctanoic acid was intravenously administered via the tail vein in a dose of 10 mg/mL/kg once a day for 7 days from the day of the ischemic operation. Dizocilpine maleate ((+)-MK-801 maleate, hereinafter referred to simply as “MK-801”) which is a positive control compound was intravenously administered via the tail vein in a dose of 10 mg/mL/kg once alone 30 minutes before the ischemic operation.
(§5) A rat was anesthetized with pentobarbital sodium (40 mg/kg, i.p.) and fixed at the dorsal position. After incising the subcostal skin, with grasping the xiphoid process with tweezers or a kocher, the upper end of the anterior abdominal muscle was horizontally incised with scissors. Next, after reversing the chest wall, the xiphoid process was grasped with a kocher or the chest wall was grasped with a kocher to expose the heart. The heart was grasped with tweezers and the left ventricular was incised with scissors. Then, the front end of a disposable oral probe for mouse connected to a blood transfusion tube was introduced from the left ventricular to the aorta and the end of the oral probe was grasped with a clamp. The atrial auricula was incised and perfused with physiological saline containing heparin (10 U/mL). The blood transfusion tube and the disposable oral probe for mouse were replaced with fresh ones and perfusion with a 10% neutral formalin buffer was conducted in the same manner as described above for fixation. After fixing, both eyes were taken out, stored in a sample bottle filled with the 10% neutral formalin buffer and subjected to the following evaluation.
(§6) An ischemic eye was excised, embedded and sliced. Next, hematoxylin-eosin staining, GFAP (glial fibrillary acidic protein) staining and S100 staining by the methods as shown in the following (5-2) to (5-4) were carried out.
An anti-GFAP rabbit antibody (cat No. Z0334, DAKO) was used. […]

[2] = test system: S100-positive cells; experiment: Rat retinal ischemia model: S100-positive cell number and area (S100 staining); settings: for Effect on increases in S100 positive areas / Effect on changes in number of S100-positive cells: result in words; for Effect on changes in number of S100-positive cells: A2 and A4 points; for inhibition at 10 mg/kg: Rattus norvegicus, S100, iv; for Area of S100 positive cells, A1 (mean): point A1; for Area of S100 positive cells, A2 (mean) / Number of S100 positive cells, A2 (mean): point A2; for Area of S100 positive cells, A3 (mean): point A3; for Area of S100 positive cells, A4 (mean) / Number of S100 positive cells, A4 (mean): point A4 (optic nerve)
Method: as §1, §2, §3, §4, §5, §6
An anti-S 100 rabbit antibody (cat No. Z0311, DAKO) was used. […]

[3] = test system: GCL cells; experiment: Rat retinal ischemia model: number of GCL cells (HE staining); settings: 10 mg/kg i.v.; for Effect on decrease in number of optic nerve cells / optic nerve cell death caused by ischemia: result in words; for Number of GCL cells, A1 (mean): retina point A1, 2 mm from optic nerve papilla; for Number of GCL cells, A1 (mean) / Number of GCL cells, A3 (mean) / Number of GCL cells, A1 + A3 (mean): 60 min ischemia; for Number of GCL cells, A3 (mean): retina point A3, 2 mm from optic nerve papilla; for Number of GCL cells, A1 + A3 (mean): sum of A1 and A3; for Inhibitory rate of decrease in number of optic nerve cells, A1+A3: sum of A1 and A3 data
Method: as §1, §2, §3, §4, §5, §6
(1) deparaffinization; (2) water washing; (3) nuclear staining with hematoxylin for 20 minutes; (4) water washing and color development for 10 minutes; (5) eosin for 3 minutes; and (6) dehydration→penetration→enclosure.
Using HE-stained samples thus obtained, GCL cells at two points (A1, A3; refer to FIG. 2) on the retina which are 2 mm apart from the optic nerve papilla (A2) were counted (cells/mm^2).

[4] = Single intravenous administration toxicity test in dogs; settings: 100 mg/kg, single i.v.
Description: Since toxicity of (2R)-2-propyloctanoic acid, a salt thereof or prodrug thereof is low, it can be considered to be sufficiently safe for medicinal uses.

SMILES	Effect on changes in number of GFAP-positive cells ([1]; 10 mg/kg i.v.)	Effect on increases in GFAP positive areas ([1]; 10 mg/kg i.v.)	Area of GFAP positive cells, A1 (mean) ([1]; point A1, 10 mg/kg i.v.)	Number of GFAP positive cells, A1 (mean) ([1]; point A1, 10 mg/kg i.v.)	Number of GFAP positive cells, A2 (mean) ([1]; 10 mg/kg i.v.)	Area of GFAP positive cells, A2 (mean) ([1]; 10 mg/kg i.v.)	Area of GFAP positive cells, A3 (mean) ([1]; 10 mg/kg i.v.)	Number of GFAP positive cells, A3 (mean) ([1]; 10 mg/kg i.v.)	Area of GFAP positive cells, A4 (mean) ([1]; 10 mg/kg i.v.)	Effect on increases in S100 positive areas ([2]; 10 mg/kg i.v.)	Effect on changes in number of S100-positive cells ([2]; 10 mg/kg i.v.)	Area of S100 positive cells, A1 (mean) ([2]; 10 mg/kg i.v.)	Area of S100 positive cells, A2 (mean) ([2]; 10 mg/kg i.v.)	Number of S100 positive cells, A2 (mean) ([2]; 10 mg/kg i.v.)	Area of S100 positive cells, A3 (mean) ([2]; 10 mg/kg i.v.)	Area of S100 positive cells, A4 (mean) ([2]; 10 mg/kg i.v.)	Number of S100 positive cells, A4 (mean) ([2]; 10 mg/kg i.v.)	Effect on decrease in number of optic nerve cells / optic nerve cell death caused by ischemia [3]	Number of GCL cells, A1 (mean) [3]	Number of GCL cells, A3 (mean) [3]	also measured
C[C@]12N[C@H](Cc3ccccc31)c1ccccc12 [MK-801, Dizocilpine maleate, reference compound]	showed inhibitory effects	showed inhibitory effects	3.4 % AREA	47.8 cells/mm^2	275.3 cells/mm^2	11.0 % AREA	3.6 % AREA	56.8 cells/mm^2	17.9 % AREA	showed inhibitory effects	showed an inhibitory effect exclusively on the increase in the number of S100-positive cells at the A2 point	1.9 % AREA	3.8 % AREA	212.9 cells/mm^2	2.1 % AREA	6.8 % AREA	600.2 cells/mm^2	showed inhibitory effects	125.1 cells/mm^2	134.9 cells/mm^2	inhibition at 10 mg/kg ([1]; read-out: Inhibitory rate of change in number of GFAP-positive cells at point A1): 42.9%; inhibition at 10 mg/kg ([1]; read-out: Inhibitory rate of increase in GFAP positive area at the point A1): 78.3%; inhibition at 10 mg/kg ([2]; read-out: Inhibitory rate of increase in S100 positive area at point A4): 51.2%; Number of GCL cells, A1 + A3 (mean) [3]: 260.0 cells/mm^2; Inhibitory rate of decrease in number of optic nerve cells, A1+A3 [3]: 59.5%
CCCCCC[C@@H](CCC)C(=O)O [(2R)-2-propyloctanoic acid]	showed inhibitory effects	showed inhibitory effects	4.2 % AREA	52.6 cells/mm^2	317.9 cells/mm^2	10.1 % AREA	4.2 % AREA	52.9 cells/mm^2	16.8 % AREA	showed inhibitory effects	showed an inhibitory effect	1.9 % AREA	3.5 % AREA	295.4 cells/mm^2	1.6 % AREA	3.3 % AREA	307.7 cells/mm^2	showed inhibitory effects; also recorded: remarkable effect of inhibiting optic nerve cell death	116.4 cells/mm^2	129.9 cells/mm^2	inhibition at 10 mg/kg ([1]; point A1, 10 mg/kg i.v., read-out: Inhibitory rate of change in number of GFAP-positive cells at point A1): 69%; inhibition at 10 mg/kg ([1]; point A1 as printed, 10 mg/kg i.v., read-out: Inhibitory rate of increase in GFAP positive area at the point A1): 87.8%; inhibition at 10 mg/kg ([2]; point A4, 10 mg/kg i.v., read-out: Inhibitory rate of increase in S100 positive area at point A4): 93.9%; inhibition at 10 mg/kg ([2]; point A4, 10 mg/kg i.v., read-out: Inhibitory rate of increase in number of S100-positive cells at point A4): 31.2%; Number of GCL cells, A1 + A3 (mean) [3]: 246.3 cells/mm^2; Inhibitory rate of decrease in number of optic nerve cells, A1+A3 [3]: 52.1%; Lethality after single intravenous administration [4]: no fatal case was observed
